Reference: US20100197745A1, “GAMMA-GLUTAMYL TRANSPEPTIDASE INHIBITORS AND METHODS OF USE” (priority 2008, published 2010)
Entries after “also recorded” stand apart in the source; their conditions may differ. Where two headings read alike, the source gives them in different places. Residues, ends and D or L forms follow the SMILES beside them.

Experiments:
[1] = target: T1, GGT isolated from human kidney (Homo sapiens, UniProt P19440); experiment: GGT transpeptidation kinetic assay (GpNA / glycyl-glycine) with GGT isolated from human kidney; type: biochemical; conditions: for Michaelis constant of the substrate (Kglygly, KGpNA): human kidney GGT
T1 construct: GGT was isolated from human kidney; tissue National Disease Research Interchange, Philadelphia, PA; host or cells: human kidney, Triton X-100 extract of microsomes
Description: (§1) An assay method was developed to screen for inhibitors of GGT. The assays were conducted in 96-well plates. The final volume in each well was 100 μL. The assay buffer contained: 100 mM Na2HPO4 pH 7.4, with 3.2 mM KCI, 1.8 mM KH2PO4, and 27.5 mM NaCl. Each reaction contained 1 mM L-glutamic acid γ-4-nitroanilide HCI (GpNA) and 40 mM glycyl-glycine (Gly-Gly)(19). GGT is expressed on the cell surface and the assay was initiated by addition of 10^4 786-O cells (ATCC CRL-1932, a GGT-positive human renal cell adenocarcinoma line).
(§2) GGT was isolated from human kidney (National Disease Research Interchange, Philadelphia, PA), male Sprague-Dawley rat kidney and female Balb/c mouse kidney. Tissue was homogenized in 4 volumes of 25 mM Tris pH 7.5, containing 0.33 M sucrose, 0.2 mM EDTA, 1 μM leupeptin and 1.4 μg/ml aprotinin. A 9000 g supernatant was spun at 100,000 g for 1 h. The microsomal pellet was homogenized in 25 mM Tris pH 7.35, 0.5% Triton X-100, 1 μM leupeptin, 1.4 μg/ml aprotinin then centrifuged again at 100,000 g for 1 h. The supernatant was assayed for GGT activity, aliquoted, and stored at −80° C. until further use. All solutions were maintained at 4° C. throughout the isolation. The specific activities of GGT were 3.4, 7.4, and 1.5 units/mg protein for human, rat, and mouse preparations, respectively. Prior to use in the GGT assay, the enzyme was diluted in phosphate-buffered saline (PBS) containing 0.025% Triton X-100 and 0.19 m Units of enzyme were used per assay unless otherwise indicated.
(§3) The concentrations of the substrate GpNA and the acceptor Gly-Gly were varied as indicated. Purified GGT was added to initiate the assay. The reaction was monitored as described for the high throughput screening.
Initial velocity data were first analyzed graphically using double-reciprocal plots of initial velocities versus substrate concentration and suitable secondary plots.
Data for competitive and uncompetitive inhibition were fitted using Equations 1 and 2.

[2] = system: metastatic melanoma to the liver; conditions: acivicin used to deplete tumor GSH in combination with aggressive therapy (ref. 4); cited from earlier work
786-O cells = experiment: Cytotoxicity assay (MTT, 72 hr) in dividing 786-O cells; type: cell-based
Description: 786-O (ATCC CRL-1932), a human renal cell adenocarcinoma line, was plated in DMEM supplemented with 5% FBS and penicillin/streptomycin (50 U/mL, 50 ug/mL) at 10^3 cells per well in 96-well plates. The next day the medium was changed to fresh DMEM containing FBS, antibiotics and the test compound. Equivalent concentrations of DMSO were added to control wells. Cell viability was determined by the MTT assay 72 hr after the addition of the test compound (20).
A two-tailed t-test was used to detect significant differences between OU749 inhibition of human GGT and inhibition of GGT from other species.

[3] = target: T2, human GGT expressed in mouse NIH3T3 fibroblasts (Homo sapiens, UniProt P19440); experiment: Inhibition of human GGT expressed in mouse NIH3T3 fibroblasts; type: cell-based; conditions: NIH3T3 transfected with human GGT cDNA (FIG. 5B)
T2 construct: expressed in transfected cells; host or cells: NIH/3T3 mouse fibroblasts, G418-selected
Description: as §1
(§4) LLC-PKI (ATCC CRL 1392), a pig kidney cell line, NRK-52E (ATCC CRL-1571), a normal rat kidney cell line, LLC-MK2 (ATCC CCL-7), a normal kidney monkey cell line, and 786-O cells were grown in complete Dulbecco's Modified Eagle's Medium (DMEM) supplemented with 5% FBS (Hyclone, Logan, Utah), and penicillin/streptomycin (50 U/mL, 50 μg/mL) (Invitrogen, Carlsbad, Calif.). NIH/3T3 cells transfected with cDNA encoding human GGT were described previously and were grown in DMEM/F12 containing 200 μg/mL of G418 (6). HK-2 (ATCC CRL-2190), a human cell line derived from immortalized normal proximal tubule cells, were grown in keratinocyte serum-free media (K-SFM) from ATCC (Manassas, Va.). The cells were trypsinized off the plates and suspended in PBS for the GGT assay.

GGT in LLC-PK1 cells = target: T3, GGT in LLC-PK1 cells (Sus scrofa, UniProt P20735); experiment: Inhibition of cell-surface GGT in pig kidney cell line; type: cell-based; conditions: LLC-PK1 (FIG. 5B)
T3 construct: LLC-PKI (ATCC CRL 1392), a pig kidney cell line; host or cells: LLC-PK1 pig kidney cells
Description: as §1, §4

[4] = target: T4, GGT isolated from rat kidney (Rattus norvegicus, UniProt P07314); experiment: Inhibition of GGT isolated from rat kidney; type: biochemical; conditions: rat kidney GGT (FIG. 5A)
T4 construct: male Sprague-Dawley rat kidney; from tissue; host or cells: male Sprague-Dawley rat kidney, Triton X-100 extract of microsomes
Description: as §2, §3

human kidney GGT = target: T5, human kidney GGT (Homo sapiens, UniProt P19440); experiment: Glutathione degradation by human kidney GGT; type: biochemical
T5 construct: GGT was isolated from human kidney; tissue National Disease Research Interchange, Philadelphia, PA; host or cells: human kidney, Triton X-100 extract of microsomes
Description: (§5) An incubation mixture contained 1 mM glutathione, 40 mM glycyl-glycine, and inhibitor in the GGT assay buffer. Reactions were initiated with the addition of 1.9 mU of GGT and incubated at 37° C. The final volume of the reaction was 100 μL. Aliquots of the reaction mixture were removed at the specified time points, immediately acidified with an equal volume of cold 4.31% 5-sulfosalicylic acid, and maintained at 4° C. until glutathione concentration was determined by the method of Tietze (21).

GGT in NRK-52E cells = target: T6, GGT in NRK-52E cells (Rattus norvegicus, UniProt P07314); experiment: Inhibition of cell-surface GGT in rat kidney cell line; type: cell-based; conditions: NRK-52E (FIG. 5B)
T6 construct: NRK-52E (ATCC CRL-1571), a normal rat kidney cell line; host or cells: NRK-52E rat kidney cells
Description: as §1, §4

[5] = target: T7, human GGT expressed in Pichia pastoris (Homo sapiens, UniProt P19440); experiment: GGT kinetic assay with purified human GGT expressed in Pichia pastoris; type: biochemical
T7 construct: The soluble domain of human GGT (amino acids 28-569) was amplified by PCR; His6 (TEV protease-cleavable) (N, cleaved yes); made in house; host or cells: Pichia pastoris strain X-33 (pPICZαA, plasmid pMW-102), secreted
Source text: The soluble domain of human GGT (amino acids 28-569) was amplified by PCR. The forward primer introduced a EcoRI restriction site and a TEV protease-cleavable N-terminal His6 tag, while the reverse primer introduced a NotI restriction site after the stop codon of genomic GGT. The PCR product was digested with EcoRI and Not I and inserted into the corresponding sites of pPICZαA (Invitrogen), generating plasmid pMW-102. This construct was amplified in E. coli DH5α cells. The fidelity of the recombinant ORF was verified by sequencing (Oklahoma Medical Research Foundation's DNA Sequencing Core Facility, Oklahoma City, Okla.). The SacI-linearized plasmid, pMW-102, was purified and transformed into wild-type Pichia pastoris strain X-33, selected and induced as recommended by Invitrogen. Secreted, recombinant, His6-tagged, human GGT was collected from the media with a Ni-NTA column. The hexahistidine tag was cleaved with His6-tagged TEV protease. […]
The concentrations of the substrate GpNA and the acceptor Gly-Gly were varied as indicated. […] The reaction was monitored as described for the high throughput screening.
Initial velocity data were first analyzed graphically using double-reciprocal plots of initial velocities versus substrate concentration and suitable secondary plots. […]

GGT in LLC-MK2 cells = experiment: Inhibition of cell-surface GGT in monkey kidney cell line; type: cell-based; conditions: LLC-MK2 (FIG. 5B)
Description: as §1, §4

[6] = target: T8, GGT in 786-O and HK-2 cells (Homo sapiens, UniProt P19440); experiment: Inhibition of cell-surface GGT in human kidney cell lines; type: cell-based; conditions: 786-O and HK-2 (FIG. 5B)
T8 construct: GGT is expressed on the cell surface; CRL-2190 (HK-2); host or cells: 786-O human renal adenocarcinoma cells; HK-2 human proximal tubule cells
Description: as §1, §4

GGT from rat kidney = target: T9, GGT from rat kidney (Rattus norvegicus, UniProt P07314); experiment: Glutathione degradation by rat kidney GGT; type: biochemical; conditions: 1 mM glutathione, 40 mM glycylglycine (FIG. 6B)
T9 construct: male Sprague-Dawley rat kidney; from tissue; host or cells: male Sprague-Dawley rat kidney, Triton X-100 extract of microsomes
Description: as §5

GGT from mouse kidney = target: T10, GGT from mouse kidney (Mus musculus, UniProt Q60928); experiment: Inhibition of GGT isolated from mouse kidney; type: biochemical; conditions: mouse kidney GGT (FIG. 5A)
T10 construct: female Balb/c mouse kidney; from tissue; host or cells: female Balb/c mouse kidney, Triton X-100 extract of microsomes
Description: as §2, §3

[7] = appKi obtained by varying GpNA, glygly fixed at 40 mM, uncompetitive, read-out: Inhibition of Transpeptidation (Alpha Ki)

T1 sequence (P19440 1-380 limits assumed): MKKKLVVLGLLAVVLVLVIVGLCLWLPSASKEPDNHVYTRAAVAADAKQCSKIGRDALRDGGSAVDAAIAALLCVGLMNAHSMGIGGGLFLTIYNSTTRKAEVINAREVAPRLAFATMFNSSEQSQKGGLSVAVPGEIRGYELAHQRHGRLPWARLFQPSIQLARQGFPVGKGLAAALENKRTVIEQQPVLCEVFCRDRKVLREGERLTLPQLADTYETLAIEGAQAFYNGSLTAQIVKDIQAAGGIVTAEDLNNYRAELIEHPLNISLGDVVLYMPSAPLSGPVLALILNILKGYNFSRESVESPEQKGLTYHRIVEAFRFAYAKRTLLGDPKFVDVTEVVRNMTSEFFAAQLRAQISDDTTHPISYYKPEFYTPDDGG
T1 sequence (P19440 381-569 limits assumed): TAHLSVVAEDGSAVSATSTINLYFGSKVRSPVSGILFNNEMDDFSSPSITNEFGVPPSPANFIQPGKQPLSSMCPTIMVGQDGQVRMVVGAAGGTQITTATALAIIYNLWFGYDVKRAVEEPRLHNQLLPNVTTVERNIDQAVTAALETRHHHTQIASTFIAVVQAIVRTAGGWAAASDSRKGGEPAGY
T5 sequence (P19440 1-380 limits assumed): as the sequence (P19440 1-380 limits assumed) above
T5 sequence (P19440 381-569 limits assumed): as the sequence (P19440 381-569 limits assumed) above
T9 sequence (P07314 whole entry): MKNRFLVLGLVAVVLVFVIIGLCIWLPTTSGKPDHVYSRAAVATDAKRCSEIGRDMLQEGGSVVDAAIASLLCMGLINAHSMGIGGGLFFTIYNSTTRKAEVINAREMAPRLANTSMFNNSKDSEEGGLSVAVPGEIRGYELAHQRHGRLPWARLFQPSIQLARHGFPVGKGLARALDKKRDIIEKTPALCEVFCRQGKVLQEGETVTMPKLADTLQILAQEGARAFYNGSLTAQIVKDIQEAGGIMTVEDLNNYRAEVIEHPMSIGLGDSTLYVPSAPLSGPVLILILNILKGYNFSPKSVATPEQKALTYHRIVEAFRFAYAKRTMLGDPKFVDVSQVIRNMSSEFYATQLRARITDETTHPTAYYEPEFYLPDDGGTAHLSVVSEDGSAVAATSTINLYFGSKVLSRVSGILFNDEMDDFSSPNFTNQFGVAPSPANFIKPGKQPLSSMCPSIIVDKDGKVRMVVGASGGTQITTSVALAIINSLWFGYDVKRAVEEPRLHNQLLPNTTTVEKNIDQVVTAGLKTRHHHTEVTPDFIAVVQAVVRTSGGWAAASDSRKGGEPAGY
T7 sequence (P19440 28-569): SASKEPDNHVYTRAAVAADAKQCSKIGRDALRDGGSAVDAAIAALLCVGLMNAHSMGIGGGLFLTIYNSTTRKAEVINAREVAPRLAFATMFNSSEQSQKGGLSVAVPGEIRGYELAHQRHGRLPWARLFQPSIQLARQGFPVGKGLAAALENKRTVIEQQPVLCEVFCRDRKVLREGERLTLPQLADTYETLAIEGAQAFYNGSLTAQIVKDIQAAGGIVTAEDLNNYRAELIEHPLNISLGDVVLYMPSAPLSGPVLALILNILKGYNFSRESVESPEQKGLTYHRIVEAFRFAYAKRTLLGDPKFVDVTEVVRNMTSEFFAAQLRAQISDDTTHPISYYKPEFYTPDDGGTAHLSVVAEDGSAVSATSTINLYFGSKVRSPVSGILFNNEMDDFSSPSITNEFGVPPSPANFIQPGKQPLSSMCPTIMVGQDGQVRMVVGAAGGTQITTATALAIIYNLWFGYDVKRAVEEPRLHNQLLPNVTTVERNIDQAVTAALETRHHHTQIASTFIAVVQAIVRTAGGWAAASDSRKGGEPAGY
T6 sequence (P07314 whole entry): as the sequence (P07314 whole entry) above
T4 sequence (P07314 whole entry): as above
T10 sequence (Q60928 whole entry): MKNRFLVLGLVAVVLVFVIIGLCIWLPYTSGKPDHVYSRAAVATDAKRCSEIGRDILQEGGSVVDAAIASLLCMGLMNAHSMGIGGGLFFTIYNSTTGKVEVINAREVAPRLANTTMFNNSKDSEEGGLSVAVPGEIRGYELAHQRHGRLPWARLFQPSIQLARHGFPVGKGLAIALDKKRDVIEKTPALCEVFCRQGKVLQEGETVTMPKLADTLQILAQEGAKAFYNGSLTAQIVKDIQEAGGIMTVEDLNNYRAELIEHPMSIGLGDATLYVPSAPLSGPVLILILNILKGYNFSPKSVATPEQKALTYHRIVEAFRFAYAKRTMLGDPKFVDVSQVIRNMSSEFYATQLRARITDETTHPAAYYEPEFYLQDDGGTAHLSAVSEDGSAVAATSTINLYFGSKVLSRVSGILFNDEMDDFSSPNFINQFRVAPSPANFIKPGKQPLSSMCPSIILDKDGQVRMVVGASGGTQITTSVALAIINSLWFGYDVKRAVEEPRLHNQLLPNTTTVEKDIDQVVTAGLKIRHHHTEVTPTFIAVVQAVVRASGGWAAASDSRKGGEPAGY
T8 sequence (P19440 whole entry): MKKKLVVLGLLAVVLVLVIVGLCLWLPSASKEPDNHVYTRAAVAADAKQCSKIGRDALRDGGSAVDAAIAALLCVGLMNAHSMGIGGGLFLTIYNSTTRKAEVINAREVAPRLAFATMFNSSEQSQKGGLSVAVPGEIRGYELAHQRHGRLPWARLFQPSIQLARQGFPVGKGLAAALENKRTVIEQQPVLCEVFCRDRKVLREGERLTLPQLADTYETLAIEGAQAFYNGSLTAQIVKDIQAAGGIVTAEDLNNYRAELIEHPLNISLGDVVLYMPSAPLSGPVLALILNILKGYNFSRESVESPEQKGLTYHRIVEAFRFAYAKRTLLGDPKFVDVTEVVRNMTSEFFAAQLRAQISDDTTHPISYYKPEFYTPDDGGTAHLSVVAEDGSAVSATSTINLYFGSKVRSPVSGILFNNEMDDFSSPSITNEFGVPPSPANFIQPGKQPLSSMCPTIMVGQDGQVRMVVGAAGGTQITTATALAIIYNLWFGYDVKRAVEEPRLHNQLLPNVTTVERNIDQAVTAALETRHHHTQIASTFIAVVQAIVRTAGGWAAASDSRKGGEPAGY

## NCC(=O)NCC(=O)O [glygly, glycyl-glycine, reference compound] (H-Gly-Gly-OH)
[1]
  Michaelis constant of the substrate (Kglygly, KGpNA): 11.4 ± 1.2 mM

## COc1ccc(S(=O)(=O)Nc2nnc(Cc3ccc(OC)c(OC)c3)s2)cc1 [Compound 9]
[1]; [7]
  Ki: 1110 µM

## N[C@H](C(=O)O)[C@@H]1CC(Cl)=NO1 [Acivicin, acivicin, reference compound]
[2]
  complete cure of metastatic melanoma to the liver, share of test animals: 90%
786-O cells; human, 72 h
  LD50: 0.81 µM

## COc1ccc(Cc2nnc(NS(=O)(=O)c3ccccc3)s2)cc1 [Compound 3, N-[5-(4-methoxybenzyl)-1,3,4-thiadiazol-2-yl]benzenesulfonamide]
[3]
  inhibition of human GGT expressed in mouse cells: inhibited by compound 3 to the same extent as human GGT expressed in other human cells
GGT in LLC-PK1 cells
  inhibition of GGT in pig kidney cell line: not inhibited
[1]; 0-125 μM, 40 mM glycylglycine (FIG. 3)
  inhibition of GGT isolated from human kidney: inhibited GGT isolated from human kidney in a dose-dependent manner
[1]; GpNA varied, glygly 40 mM
  type of inhibition with respect to GpNA: uncompetitive
[1]; [7]
  Ki: 73.8 ± 2.5 µM
[1]; fit of data of FIGS. 4A-D to the equation for noncompetitive inhibition, read-out: Ki binding to the E form of the enzyme
  Ki: > 200 µM
[1]; glygly varied, GpNA 3 mM
  type of inhibition with respect to glygly: competitive
[1]; glygly varied, GpNA maintained at 3 mM, read-out: Ki, competitive with respect to glygly (intrinsic value)
  Ki: 17.6 ± 3.8 µM
[1]; relative to binding in the presence of the γ-glutamyl moiety
  weaker binding to the E form: > 10 fold
[4]
  fold less potent than against GGT isolated from human kidney: 7 fold
Human kidney GGT; 1 mM glutathione, 40 mM glycylglycine, 62.5-500 uM compound (FIG. 6A)
  inhibition of cleavage of glutathione: inhibited the cleavage of glutathione in a dose-dependent manner; also recorded: inhibited glutathione breakdown by human GGT
Human kidney GGT; human GGT, data not shown
  inhibition of cleavage of oxidized glutathione (GSSG): inhibited the cleavage of oxidized glutathione
GGT in NRK-52E cells
  inhibition of GGT in rat kidney cell line: only weakly inhibited
[5]; GpNA varied, 40 mM glycylglycine, read-out: appKi obtained varying GpNA
  Ki: 58.2 ± 1.6 µM
[5]; glygly varied, 3 mM GpNA, read-out: appKi as a competitive inhibitor of glygly
  Ki: 25 ± 2 µM
GGT in LLC-MK2 cells
  inhibition of GGT in monkey kidney cell line: only weakly inhibited
786-O cells; 786-O cells in log growth
  fold less toxic than acivicin: more than 150 fold
  toxicity relative to acivicin: at least an order of magnitude less toxic than acivicin
786-O cells; 786-O cells in log growth, listed as compound 3
  fold less toxic than acivicin: 150 fold
786-O cells; dividing 786-O cells, 3 days with test compound, MTT
  LD50: 128 µM
[6]
  inhibition of GGT in human kidney cell lines: dose-dependent inhibition
GGT from rat kidney
  inhibition of degradation of glutathione: unable to inhibit; also recorded: did not inhibit
GGT from mouse kidney
  fold less potent than against GGT isolated from human kidney: 10 fold

## N[C@@H](CCC(=O)Nc1ccc([N+](=O)[O-])cc1)C(=O)O [GpNA, L-glutamic acid γ-4-nitroanilide HCI, reference compound]
[1]
  Michaelis constant of the substrate (Kglygly, KGpNA): 1.07 ± 0.04 mM

## COc1ccc(Cc2nnc(NS(=O)(=O)c3ccc([N+](=O)[O-])cc3)s2)cc1 [Compound 7]
[1]; [7]
  Ki: 114 ± 8.4 µM

## O=S(=O)(Nc1nnc(Cc2ccccc2)s1)c1ccc(Cl)cc1 [Compound 4]
[1]; [7]
  Ki: 75.9 ± 1.7 µM
